The values below come from article PMC9295577, “Parasite Viability as a Measure of In Vivo Drug Activity in Preclinical and Early Clinical Antimalarial Drug Assessment” (Antimicrobial Agents and Chemotherapy, 2022).

Series [1] is described as follows: DHA pharmacokinetics in NSG mice after oral artesunate, one-compartment model. The series is classed as in vivo. The conditions noted are these: mouse, whole blood.
Method: A volume of 25 μL of whole-blood samples was collected via the tail vein from individual mice at 0.75, 1.5, 3, 8, 26, 50, and 74 h from the 50-mg/kg 4-daily-dose group and at 0.75, 1.5, 3, and 8 h from the 200-mg/kg single-dose group. […] Samples were vortexed for 20 s before being stored at −80°C.
Briefly, the model is defined as follows: (2) C(t)=D×ka/Vd/F(ka−CL/Vd) ×[exp⁡(−CL/Vd×(t−tlag))− exp⁡(−ka×(t−tlag)) ], where Vd/F (L) is the apparent volume of distribution, tlag (h) is the lag time between administration and absorption, CL/F (L/h) is the apparent drug clearance, ka is the rate of drug absorption, and D is the dose given to each subject. The model was fit with and without a lag for the absorption.
We used a least-square approach when fitting the ex vivo regrowth assay to estimate the concentration of viable parasites. […] When fitting the pharmacodynamic model, we first fit the pretreatment parasite concentration data for each human subject with the parasite growth model (equation 3) and estimated the distribution of parasite stages at the time of treatment and the parasite multiplication factor (PMF) when drug is not present. […]
A short description of series [2]: DHA pharmacokinetics in human volunteer infection study after artesunate. It counts as in vivo, humans. From the text:
(§1) The human data used in this study were obtained from a randomized clinical trial (ACTRN12617001394336) ([24]) and the associated exploratory viability study ([19]). Briefly, 5 volunteers were infected by intravenous injection of blood-stage 3D7 P. falciparum parasites.
Briefly, the model is defined as follows: (2) C(t)=D×ka/Vd/F(ka−CL/Vd) ×[exp(−CL/Vd×(t−tlag))− exp(−ka×(t−tlag)) ], where Vd/F (L) is the apparent volume of distribution, tlag (h) is the lag time between administration and absorption, CL/F (L/h) is the apparent drug clearance, ka is the rate of drug absorption, and D is the dose given to each subject. The model was fit with and without a lag for the absorption. The absorption was too fast to be observed in mice, and the one-compartment open model without a lag term fit the murine data best.
A one-compartment model with a first-order absorption and a lag, fit the human data best.
We used a least-square approach when fitting the ex vivo regrowth assay to estimate the concentration of viable parasites. […] When fitting the pharmacodynamic model, we first fit the pretreatment parasite concentration data for each human subject with the parasite growth model (equation 3) and estimated the distribution of parasite stages at the time of treatment and the parasite multiplication factor (PMF) when drug is not present. For the mice, pretreatment parasitemia curves were not detailed enough to allow fitting to estimate parasite life stage distributions and PM: instead, we estimated the PMF for each mouse from the in vivo recrudescence curves after treatment (fitting a tobit regression model using R package censReg) (Fig. 3), and we estimated the life stage distribution using the life stages from flow cytometric analysis (outlined in section C in the supplemental material). […] We fit this model to all data on parasite viability and total circulating parasitemia from mice and humans simultaneously with a variety of parameters constrained to be equivalent between mice and humans, in order to test which parameters, if any, were required to be different between the two hosts in order to best explain the data. We compared these models using the likelihood ratio test (for nested models) and the Akaike information criterion (AIC). A model with fewer parameters was deemed a better fit of the data unless the likelihood ratio test yielded a P value of […] (for nested models) or the difference in AIC of >10 for nonnested models.

Series [3] concerns P. falciparum 3D7. As to the kind of experiment: PK/PD model of parasite killing and clearance, parameters for mice. The series is classed as in vivo. From the text:
(§2) To model the drug action in both mice and humans, we used a pharmacodynamic (PD) model in which viable parasites are growing at rate g (per hour) and killed at rate κ (per hour). The dead parasites are then removed at a separate rate, δ (per hour). […] The latter observation is consistent with observations of slower parasite clearance after drug treatment in the NSG mouse model compared with human infection ([27]).
(§3) To model the cyclical growth of P. falciparum parasites, we used a previously published age-structured model of parasite growth, which tracks the distribution of parasite stages developing in time ([40]): (3) vT(a,T)+va(a,T)=0 where, v is the density of parasites at time T postinfection and age a. In this equation, subscripts indicate the partial derivative of v with respect to the subscript variable. […] The constant PMF is the parasite multiplication factor. Since parasites older than approximately 24 h of age are sequestered and no longer in circulation, the total number of circulating viable parasites (V) at any time is given by V(T)= ∫0asv(a,T)da where as is the age that parasites sequester. Importantly, as has been reported previously, the Plasmodium falciparum 3D7 strain used in these studies has an approximately 40-h blood-stage cycle ([41], [42]), so the maximum age of parasites is taken to be A=40 h.
(§4) We extended an existing age-structured model of parasite growth ([43]) to include drug killing of parasites. […] The model has two parasite compartments: one for viable parasites and one for nonviable parasites. The model of drug killing of viable parasites and host removal of nonviable parasites after treatment is defined as follows: vt(a,t)+va(a,t)= −κ(a,C(t))×v(a,t) (4) ut (a,t)=κ(a,C(t))×v(a,t)−δ×u(a,t) for a>0 where v(a,t) and u(a,t) are the density of viable and nonviable parasites of age a at time t posttreatment, respectively. […] The parameter δ is the rate of host removal of nonviable parasites. The total concentrations of circulating V(t) viable and nonviable U(t) parasites at time t are defined as follows: V(t)= ∫0aSv(a,t)da U(t)= ∫0aSu(a,t)da where as is the parasite sequestration age. We assume that the parasites are not sequestering in mice, in which case, as=A (the length of the parasite blood-stage life cycle), and that parasites sequester at as=A/2 in humans ([46]).
(§5) The maximum killing rate m(a) is a function of the parasite age since very-late-stage parasites are not killed by treatment ([47]).
(§6) As in previous studies, the age above which late-stage parasites survive treatment (aschiz) is taken to be the final 4 h of a 48-h life cycle ([48], [49]). The malaria parasite strain used in this study has a 40-h life cycle ([42], [46]), and we take aschiz as the last 4/48th of the life cycle. […]

The subject of series [4] is P. falciparum 3D7. As to the kind of experiment: PK/PD model of parasite killing and clearance, parameters for humans. The series is classed as in vivo. The conditions noted are these: human data from ref 19.
Source text: as §2, §1, §3, §4
The maximum killing rate m(a) is a function of the parasite age since very-late-stage parasites are not killed by treatment ([47]). […]

In series [5] the test system is P. falciparum 3D7. As to the kind of experiment: PK/PD model of parasite killing, parameters common to humans and mice. The series is classed as in vivo, Plasmodium falciparum.
Source text: as §2, §3, §4, §5, §6

Details of series [6]: method as in earlier work. The conditions noted are these: humans, non-compartmental analysis, population mean (CV), ref 4 (supplement; Watts et al. 2020), cited from earlier work.
For series [7] the following is noted: mouse, literature, cited from earlier work.
Series [8] relates to P. falciparum Pf3D7^0087/N9. Description: Artesunate efficacy in the murine P. falciparum NSG model: parasitemia and parasite viability (ex vivo regrowth assay). Also on record: species or system Plasmodium falciparum. The note with it: NSG mice, first 24 h, single oral dose 200 vs 50 mg/kg.
Method: Compound efficacy was assessed in the murine P. falciparum NSG model, as described by Jimenez-Diaz et al. ([38]). […] These mice had been engrafted with human erythrocytes 14 days earlier (generously provided by the Blood Bank in Zürich, Switzerland). Prior to compound treatment, mice were intravenously infected with 2 × 10^5 P. falciparum Pf3D7^0087/N9-infected erythrocytes (day 0). On day 3 after infection, mice were randomly allocated to treatments that were administered orally. Parasitemia was measured by microscopy. Chimerism was monitored by flow cytometry using anti-murine erythrocyte TER119 monoclonal antibody (Pharmingen, San Diego, CA) and SYTO-16 and then analyzed by flow cytometry in serial blood samples (2 μL) collected every day until the completion of the experiment. Parasite recrudescence was detected by microscopy.
Prior to each treatment and after 8, 24, 48, 72, 96 and 168 h, 40 μL of blood was collected using a heparinized capillary and transferred into 10 mL of 37°C preheated medium. The suspension was centrifuged (5 min at 290 × g) and the supernatant discarded.
For the ex vivo regrowth assay (ERA), 10-μL pellets of the washed mouse blood sample were processed as described above for the IRA.
To estimate parasite viability, we fitted the data from the regrowth assay with a mathematical model of parasite growth as described in reference [19]. […]
Setting [9] is: humans, one compartment model, population estimate (95% CI).
The mark [10] stands for this setting: model with EC50 and γ common to humans and mice.
The mark [11] stands for this setting: model with Emax and γ common to humans and mice.
[12] abbreviates: assumes average mouse weight of 25 g.

Values after ≈ are worked out from the molar mass of the structure shown. Values joined by “and” are separate entries in the source; they are usually repeats but may differ in a detail not shown here. Equal entries are not always repeated. Where two headings read alike, the source gives them in different places.

On to `C[C@H]1[C@@H](O)O[C@@H]2O[C@@]3(C)CC[C@H]4[C@H](C)CC[C@@H]1[C@@]24OO3` [DHA, dihydroartemisinin], for which the half-life was 24 min in series [1] (mice, computed from CL and Vd, read-out: t1/2, half-clearance time (converted)); 27 min in series [2] (human, blood, 2 mg/kg, humans, computed from CL and Vd, read-out: t1/2, half-clearance time (converted)). The Vd/F in series [1] (read-out: Vd/F, apparent volume of distribution) amounted to 0.55 L; in series [2] (human, blood, 2 mg/kg, read-out: Vd/F, apparent volume of distribution), 166 L. Also, the “CL/F, apparent clearance” value was 254.5 L/h and 254.5 (144.5, 364.5) L/h in series [2] (humans (n = 5), artesunate 2 mg/kg, population estimate (95% CI), one-compartment model fitted to data from reference 24); 1.53 L/h in series [7] (setting [12]); 1.98 L/h in series [7]. Moreover, the “Dose-Normalised AUC” value was 5.34 (3.83, 6.52) μg h L^-1 mg^-1 in series [2] (humans, one compartment model, average of volunteers, bootstrap confidence interval); 6.3 (89.9) μg h L^-1 mg^-1 in series [6] (ART-R infection); 7.5 (33.2) μg h L^-1 mg^-1 in series [6] (ART-S infection). In addition, the “ka, absorption rate” value in series [2] (setting [9]) was 2.29 h⁻¹. Also, in series [2] (setting [9]), the “tlag, lag-time” value is reported as 0.62 (0.4, 0.83) h. Also, the EC50 in the series on P. falciparum 3D7 [3] (Plasmodium falciparum, 3D7, model with Emax and γ common to humans and mice, read-out: EC50M, drug concentration to reach the half-maximum killing rate in mice) was 1.32 ng/mL (≈ 4.64 nM); with P. falciparum 3D7 [4] (Plasmodium falciparum, 3D7, model with Emax and γ common to humans and mice, read-out: EC50H, drug concentration to reach the half-maximum killing rate in humans) it was 0.0025 ng/mL (≈ 0.00879 nM); in the series on P. falciparum 3D7 [5] (Plasmodium falciparum, 3D7, model with EC50 and γ common to humans and mice, different Emax, read-out: EC50, drug concentration to reach the half-maximum killing rate) it was 0.0074 ng/mL (≈ 0.026 nM). Besides, the “EmaxM, maximum killing rate in mice” value in the series on P. falciparum 3D7 [3] (setting [10]) was determined as 0.74 h⁻¹. Also, the “EmaxH, maximum killing rate in humans” value in the series with P. falciparum 3D7 [4] (setting [10]) is 1.45 h⁻¹. Moreover, the “γ, Hill coefficient” value in the series with P. falciparum 3D7 [5] (setting [10]) came to 0.70; with P. falciparum 3D7 [5] (setting [11]), 0.41. Also, the “Emax, maximum killing rate” value with P. falciparum 3D7 [5] (model with Emax and γ common to humans and mice, different EC50s) worked out at 1.34 h⁻¹. Also, the “V/F, apparent volume of distribution” value in series [6] (ART-R infection (n = 13)) is recorded as 221.1 (53.6) L; in series [6] (ART-S infection (n = 9)), 310.3 (119.4) L. Besides, the “Vd/F, apparent volume of distribution” value is 0.91 L in series [7] (setting [12]) and 0.85 L in series [7]. The “t1/2, half-clearance time” value in series [7] was 0.41 ([50]) h.

For the compound `C[C@H]1[C@H](OC(=O)CCC(=O)O)O[C@@H]2O[C@@]3(C)CC[C@H]4[C@H](C)CC[C@@H]1[C@@]24OO3` [artesunate], in series [8], the “increase in the decline in total parasitemia on increasing dose from 50 to 200 mg/kg” value was 2.2 fold. In series [8] (regrowth assay), the “increase in the decline in viability on increasing dose from 50 to 200 mg/kg” value was determined as 23.9 fold. Moreover, the “δM, dead parasite clearance rate in mice” value with P. falciparum 3D7 [3] (setting [10]) and in the series on P. falciparum 3D7 [3] (setting [11]) was 0.097 h⁻¹ throughout. The “δH, dead parasite clearance rate in humans” value in the series on P. falciparum 3D7 [4] (setting [10]) and with P. falciparum 3D7 [4] (setting [11]) was 0.18 h⁻¹ each time.
